Results taken from ChEMBL document CHEMBL1212731, “Nonclonal emergence of colistin-resistant Klebsiella pneumoniae isolates from blood samples in South Korea” (2010).
In brackets after ≈: the same amount, converted by molar mass.

How the values were obtained:
Format in all cases: functional
Klebsiella pneumoniae [1] = experiment: Antimicrobial activity against colistin-resistant Klebsiella pneumoniae isolated from bacteremia patient assessed as percentage of resistant isolates by broth microdilution method
Klebsiella pneumoniae [2] = experiment: Antimicrobial activity against colistin-susceptible Klebsiella pneumoniae isolated from bacteremia patient assessed as percentage of resistant isolates by broth microdilution method
Klebsiella pneumoniae [3] = experiment: Antimicrobial activity against Klebsiella pneumoniae isolated from bacteremia patient assessed as percentage of resistant isolates by broth microdilution method
Klebsiella pneumoniae [4] = experiment: Antimicrobial activity against colistin-resistant Klebsiella pneumoniae isolated from bacteremia patient by broth microdilution method

Compound | Activity (Klebsiella pneumoniae [1]) [%] | Activity (Klebsiella pneumoniae [2]) [%] | Activity (Klebsiella pneumoniae [3]) [%] | MIC50 (Klebsiella pneumoniae [4]) [µg/mL] | MIC90 (Klebsiella pneumoniae [4]) [µg/mL]
O=C(O)c1cn(C2CC2)c2cc(N3CCNCC3)c(F)cc2c1=O [CIPROFLOXACIN] | 20 | 17.5 | 17.7 | ≤ 0.06 | 64 (≈ 193 µM)
C[C@@H](O)[C@H]1C(=O)N2C(C(=O)O)=C(SCCNC=N)C[C@H]12 [IMIPENEM ANHYDROUS] |  | 0.5 | 0.5 | 0.25 (≈ 0.835 µM) | 1 (≈ 3.34 µM)
CO/N=C(\C(=O)N[C@@H]1C(=O)N2C(C(=O)O)=C(COC(C)=O)CS[C@H]12)c1csc(N)n1 [CEFOTAXIME] | 6.7 | 15.1 | 14.5 | ≤ 0.12 | 128 (≈ 281 µM)
CC1(C)S[C@@H]2[C@H](NC(=O)[C@H](N)c3ccccc3)C(=O)N2[C@H]1C(=O)O [AMPICILLIN] | 80 | 92.2 | 91.4 | 64 (≈ 183 µM) | > 64
COLISTIN | 100 |  | 6.8 | 1 | 4
CC(C)(O/N=C(\C(=O)N[C@@H]1C(=O)N2C(C(=O)[O-])=C(C[n+]3ccccc3)CS[C@H]12)c1csc(N)n1)C(=O)O [CEFTAZIDIME] | 6.7 | 18.5 | 17.7 | 0.25 (≈ 0.457 µM) | > 64
C[C@H]1[C@H](NC(=O)/C(=N\OC(C)(C)C(=O)O)c2csc(N)n2)C(=O)N1S(=O)(=O)O [AZTREONAM] | 6.7 | 17.5 | 16.7 | ≤ 0.06 | > 64
GENTAMICIN | 6.7 | 17 | 16.3 | 0.5 | > 64
